In publication PMC8212695, “Discovery of a Highly Conserved Peptide in the Iron Transporter Melanotransferrin that Traverses an Intact Blood Brain Barrier and Localizes in Neural Cells” (Frontiers in Neuroscience, 2021):
Like-named read-outs stand apart in the source and are kept apart here. Where no end group is shown, it is not given here.

Columns and labels:
[1] = test system: in vitro BBB model: primary bovine brain capillary endothelial cells supported by primary rat glial cells
[2] = mouse, in vivo, iv
[3] = test system: in vitro BBB model: primary bovine brain capillary endothelial cells supported by primary rat glial cells; test: In vitro BBB model transcytosis of trypsin-digested sMTf, peptides identified by mass spectrometry; settings: for Ablum 120:Area: MS peak area in abluminal compartment at 120 min; for Ablum 120:Area / Lum 120:Area: trypsin-digested sMTf 0.25 mg/mL luminal, Ringer-HEPES, 37°C, 2 h, LC-MS, one peptide may have several lines; for Lum 120:Area: MS peak area in luminal compartment at 120 min; for presence of MTf fragments on the abluminal side: after 2 h, SDS-PAGE and/or mass spectrometry
[4] = test system: in vitro BBB model: primary bovine brain capillary endothelial cells supported by primary rat glial cells; remark: listed apart in the source
[5] = test system: neurons, astrocytes, microglia, lysosomes, endosomes in the brain; test: Cellular and subcellular localization of MTfp in mouse brain, 3D confocal microscopy; format: in vivo; settings: mice injected IV with Cy5-MTfp
Experimental: Three sets of 3D fluorescence microscopy experiments were performed. The first set measured the BBB penetration of Cy5 tagged MTfp using DeltaVision Elite integrated with Huygens Deconvolution Software (GE, United States). As an extension of this, a set of sections were prepared to assess the cellular localization of the Cy-5 tagged MTfp in the CNS. The second set of experiments addressed the localization of Cy-5 tagged MTfp in various cell types and subcellular objects using the Leica SP8 X system (Leica, Germany).
The brains were removed and fixed with 4% paraformaldehyde overnight and then transferred into PBS+0.01% sodium azide and stored at 4°C. The brains were embedded in 4% agarose, fixed onto the microtome stage and sectioned (20 μm) at 4°C. The sections were stained with DAPI and then mounted on microscopic slides. Glass coverslips were mounted on the sections using Prolong Gold antifade reagent. In another experiment, to assess the localization of the peptide in the CNS, brains from mice injected with either PBS or Cy5-MTfp followed by FITC- tomato lectin. The brains were collected and processed as stated above. These were then incubated with antibodies targeted against neurons (NeuN; ab177487), microglia (TMEM; ab209064), astrocytes (GFAP; ab7260), lysosomes (LAMP-1; sc-19992-AF546) and endosomes (EEA-1; sc-137130), secondary antibody staining was done for unconjugated primary antibodies with Alexa fluor 680 goat anti-mouse IgG (cat# A21058), Alexa fluor 680 goat anti-rabbit IgG (Cat #A21076) and then counter-stained with DAPI, cover slipped, imaged and quantitatively analyzed to determine the extent of localization of various cell types and subcellular objects with MTfp.
The microscopy experiments, which quantitatively assessed the cellular location of MTfp within the brain, were performed using Leica SP8 X system (Leica, Germany). 3D confocal images were acquired with a Leica AOBS SP8 laser scanning confocal microscope (Leica, Heidelberg, Germany) using a high-resolution Leica 63X/1.4 or 40X/1.3 Plan-Apochromat oil immersion objective lens. Excitations were performed using either diode or tunable white light laser sources. All images and spectral data (except DAPI) were generated using the highly sensitive HyD detectors (with gated option) in de-scanned mode. The backscattered emission signals from the sample were delivered through the tunable filter (AOBS), the detection pinhole, spectral dispersion prism, and finally to the PMT/HyD detectors. For 3D image data set acquisition, the excitation beam was first focused at the maximum signal intensity focal position within the brain tissue sample and the appropriate HyD gain levels were then selected to obtain the pixel intensities within range of 0–255 (8-bit images) using a color gradient function. The beginning and end of the 3D stack were set based on the signal level degradation. Series of 2D images for a selected 3D stack volume were then acquired with 1,024 × 1,024 pixels. […]
For each tissue volume reported here, z-section images were compiled and finally the 3D image restoration was performed using VOLOCITY software (Perkin Elmar, United Kingdom). The volume estimation was performed on the 3D image data sets recorded from four or more cortical area of brain tissue samples. Algorithms were developed to automate the quantification of the test materials and blood capillaries, and to accurately quantify test materials localized in blood capillaries vs. brain parenchyma. […]

[6] = stable isotopic LC-MS; ref Singh et al., 2020; cited from earlier work
From the text: In the context of the present study, the variability in conformation, glycosylation, anchoring and metal binding, presents potential complications to the use of sMTf as a robust, reproducible, clinically useful drug delivery vehicle. Therefore, to improve upon the utility of sMTf as a drug-delivery vector, we fragmented the protein in order to identify the minimally active region that retains the capability of carrying molecular cargo across the BBB. We report the identification of a 12 amino acid peptide (MTfp; […]), derived from melanotransferrin protein, that retains the ability cr ...

[7] = In vivo BBB penetration of Cy5-tagged peptides, 3D deconvolution fluorescence microscopy; settings: mice, IV, Cy5 conjugates

| Substance | Ablum 120:Area [1] | Lum 120:Area [1] | Ablum 120:Area [3] | Lum 120:Area [3] | presence of MTf fragments on the abluminal side [3] | Abluminal vs. luminal [4] [%] | Abluminal vs. total [4] [%] | also measured |
| --- | --- | --- | --- | --- | --- | --- | --- | --- |
| EHGLKPVVGEVYDQEVGTSYYAVAVVRR | 1.70E+07 | 0.00E+00 |  |  |  |  |  |  |
| NYPSSLCALCVGDEQGR | 7.34E+07 | 6.15E+08 |  |  |  |  |  |  |
| RLEDLTFAHSSDYC [revMTfp-Cy5, reference compound] |  |  |  |  |  |  |  | VT ABVP (Volume of Parenchymal Test Article normalized to Parenchymal Volume), Mean [2]: 6.6 7E-04 |
| TVGWNVPVGYLVESGR | 0.00E+00 | 9.38E+07 |  |  |  |  |  |  |
| DSSHAFTLDELRGK | 1.99E+07 | 0.00E+00 |  |  |  |  |  |  |
| DSSHAFTLDELRYC [MTfp-Cy5] |  |  |  |  |  |  |  | VT ABVP (Volume of Parenchymal Test Article normalized to Parenchymal Volume), Mean [2]: 1.0 8E-03; fractional fluorescence in the brain parenchyma compared to mice injected with PBS or revMTfp-Cy5 [2]: Approximately two |
| YYDYSGAFR |  |  | 6.41E+09 | 1.00E+09 | identified in the abluminal medium | 0.13 | 0.05 |  |
| ADVTEWR [ADVTEWR] |  |  | 1.05E+10 | 9.31E+08 | identified in the abluminal medium | 1.32 | 0.82 |  |
| DSSHAFTLDELR [MTfp] |  |  | 5.87E+09 | 1.03E+10 | identified in the abluminal medium | 2.41 | 1.90 | MTfp found in the early endosomes ([5]; EEA-1 marker): approximately 20%; MTfp found in the lysosomes ([5]; LAMP-1 marker): 40%; astrocytes expressing GFAP co-labeled with MTfp ([5]; fluorescence volume fraction): 70%; microglia expressing TMEM co-labeled with MTfp ([5]; fluorescence volume fraction): 80%; neurons expressing NeuN co-labeled with MTfp ([5]; fluorescence volume fraction): 90%; initial rate of entry into the brain [6]: 2.1 nM/min; BBB penetration efficiency compared with RVGp [7]: statistically similar |
| ADTDGGLIFR |  |  | 1.59E+10 | 1.11E+10 | identified in the abluminal medium | 2.16 | 1.60 |  |
| ADTDGGLIFRLLNEGQR | 0.00E+00 | 3.69E+07 |  |  |  |  |  |  |
| AVSDYFGGSCVPGAGETSYSESLCR | 5.49E+08 | 5.51E+09 |  |  |  |  |  |  |
| LCRGDSSGEGVCDK | 2.64E+05 | 2.17E+05 |  |  |  |  |  |  |
| GDSSGEGVCDKSPLER | 1.93E+09 | 5.08E+08 |  |  |  |  |  |  |
| VPAHAVVVR |  |  | 1.24E+08 | 3.48E+07 | identified in the abluminal medium | 2.49 | 1.52 |  |
| IQAEQVDAVTLSGEDIYTAGK | 0.00E+00 | 3.48E+06 |  |  |  |  |  |  |
